Test results from patent US20260049079A1, “CHIRAL SYNTHESIS OF FUSED BICYCLIC RAF INHIBITORS” (Jazz Pharmaceuticals Ireland Limited, priority 2020, published 2026).
≈ marks a conversion by molar mass, not a printed value. Like-named read-outs stand apart in the source and are kept apart here.

What was measured:
[1] = Microsomal Stability Assay (HLM); format: in vitro ADME; details: human liver microsomes, 0.5 mg/mL protein, 1 μM compound, 37° C.
Procedure: (§1) Microsomal Stability Assay
(§2) The stability studies were performed manually using the substrate depletion approach. Test compounds were incubated at 37° C. with cryo-preserved mouse or human liver microsomes (Corning) at a protein concentration of 0.5 mg·mL^−1 and a final substrate concentration of 1 μM. Aliquots were removed from the incubation at defined timepoints and the reaction was terminated by adding to ice-cold organic solvent. Compound concentrations were determined by LC-MS/MS analysis. The natural log of the percentage of compound remaining was plotted against each time point and the slope determined. The half-life (t1/2) and CLint were calculated using Equations 1 and 2, respectively. Data analysis was performed using Excel (Microsoft, USA).
(§3) HLM (human liver microsomes) and MLM (mouse liver microsomes) stability assay results are described in Table 34C.

[2] = tested on: constitutive ERK phosphorylation in HCT-116 cells (KRAS G13D); experiment: HCT-116 AlphaLISA SureFire pERK1/2 Cellular Assay; format: cell-based; details: Homo sapiens
Procedure: HCT-116 AlphaLISA SureFire pERK1/2 Cellular Assay
(§4) The human HCT-116 colorectal carcinoma cell line (ATCC CCL-247) endogenously expresses the KRAS^G13D mutation, which leads to constitutive activation of the MAP kinase pathway and phosphorylation of ERK. […] Assay read outs took place 2 or 24 hours after dosing with compounds. On the first day, HCT-116 cells were harvested, resuspended in growth medium (McCoys5A with Glutamax (Life Technologies 36600021) and 10% heat-inactivated fetal bovine serum (Sigma F9665)), and counted. Cells were plated in 100 μl per well in each well of a 96-well culture dish (Sigma CLS3598) to a final density of 30,000 (2 hr read) or 15,000 (24 hr read) cells per well and incubated over night at 37° C. and 5% CO2. On day 2, the growth medium was exchanged for dosing medium (McCoys5A with Glutamax (Life Technologies 36600021) and 1% heat-inactivated fetal bovine serum (Sigma F9665)) and the cells were dosed with compounds to produce a 10-point dose response, where the top concentration was 1 μM and subsequent concentrations were at ⅓ log dilution intervals. A matched DMSO control was included. The cells were subsequently incubated for either 2 or 24 hours at 37° C. and 5% CO2. After incubation, media was removed and the cells were incubated with lysis buffer containing phosphatase inhibitors for 15 minutes at room temperature. Cell lysates were transferred to a ½ area 96 well white Optiplate™ (Perkin Elmer 6005569) and incubated with anti-mouse IgG acceptor beads, a biotinylated anti-ERK1/2 rabbit antibody recognizing both phosphorylated and non-phosphorylated ERK1/2, a mouse antibody targeted to the Thr202/Tyr204 epitope and recognizing phosphorylated ERK proteins only, and streptavidin-coated donor beads. The biotinylated antibody binds to the streptavidin-coated donor beads and the phopsho-ERK1/2 antibody binds to the acceptor beads. Plates were read on an EnVision reader (Perkin Elmer) and excitation of the beads at 680 nm with a laser induced the release of singlet oxygen molecules from the donor beads that trigger energy transfer to the acceptor beads in close proximity, producing a signal that can be measured at […]. Both antibodies bound to phosphorylated ERK proteins, bringing the donor and acceptor beads into close proximity. All data were analyzed using the Dotmatics or GraphPad Prism software packages. Inhibition of ERK phosphorylation was assessed by determination of the absolute IC50 value, which is defined as the concentration of compound required to decrease the level of phosphorylated ERK proteins by 50% when compared to DMSO control.

HCT-116 cells = experiment: HCT-116 CellTiter-Glo 3D Cell Proliferation Assay; format: cell-based; details: Homo sapiens, HCT116 spheroids, read-out: 3D HCT116 pGI50 (converted)
Procedure: HCT-116 CellTiter-Glo 3D) Cell Proliferation Assay
On the first day, HCT-116 cells were harvested, resuspended in growth medium (McCoys5A with Glutamax (Life Technologies 36600021) with 10% heat-inactivated fetal bovine serum (Sigma F9665)), and counted. Cells were plated in 100 μl per well in each well of a Corning 7007 96-well clear round bottom Ultra-Low Attachment plate (VWR 444-1020) to a final density of 1000 cells per well. Cells were seeded for pre- and post-treatment readouts. The cells were then incubated at 37° C. and 5% CO2 for 3 days (72 hours) to allow spheroid formation. After 72 hours, the plate seeded for a pre-treatment read was removed from the incubator to allow equilibration to room temperature for 30 minutes, before CellTitre-Glo® reagent was added to each well. The plates were incubated at room temperature for 5 minutes shaking at 300 rpm, followed by an incubation of 25 minutes on the benchtop before being read on the Envision reader (Perkin Elmer) as described below. On the same day, the cells plated for the post-treatment readout were dosed with compounds to produce a 9-point dose response, where the top concentration was 15 M and following concentrations were at ½ log dilution intervals. […] Therefore, plates were read on an EnVision reader (Perkin Elmer) and luminescence signals were recorded. […]

[3] = Plasma Protein Binding Assay (mPPB); format: in vitro ADME; details: mouse plasma, equilibrium dialysis, 5 μM, 4 hours, 37° C.
Procedure: (§5) Plasma Protein Binding Assay
(§6) The plasma protein binding was determined by the equilibrium dialysis method. A known concentration of compound (5 μM) in previously frozen human or mouse plasma (Sera Labs) was dialysed against phosphate buffer using a RED device (Life Technologies) for 4 hours at 37° C. The concentration of compound in the protein containing (PC) and protein free (PF) sides of the dialysis membrane were determined by LC-MS/MS and the % free compound was determined by equation 4. Data analysis was performed using Excel (Microsoft, USA).
(§7) hPPB (human plasma protein binding) and mPPB (mouse plasma protein binding) results are described in Table 34D.

[4] = Hepatocyte Stability Assay (HLH); format: in vitro ADME; details: human hepatocytes, 0.5×10^6 cells/mL, 1 μM compound, 37° C.
Procedure: (§8) Hepatocyte Stability Assay
(§9) Hepatocyte stability studies were performed manually using the substrate depletion approach. Compounds were incubated at 37° C. with cryo-preserved mouse (Bioreclamation) or human (Corning) hepatocytes at a cell density of 0.5×10^6 cells/mL and a final compound concentration of 1 μM. Sampling was performed at defined timepoints and the reaction was terminated by adding to ice-cold organic solvent. Compound concentrations were determined by LC-MS/MS analysis. The natural log of the percentage of compound remaining was plotted against each time point and the slope determined. The half-life (t1/2) and CLint were calculated using Equations 1 and 3, respectively. Data analysis was performed using Excel (Microsoft, USA).
(§10) HLH (human liver hepatocytes) and MLH (mouse liver heptaocytes) stability assay results are described in Table 34C.

[5] = Microsomal Stability Assay (MLM); format: in vitro ADME; details: mouse liver microsomes, 0.5 mg/mL protein, 1 μM compound, 37° C.
Procedure: as §1, §2, §3

[6] = tested on: constitutive ERK phosphorylation in WiDr cells (BRAF V600E); experiment: WiDr AlphaLISA SureFire pERK1/2 Cellular Assay; format: cell-based; details: Homo sapiens
Procedure: [Worded in the source for another cell line; used here, by the source, with some conditions changed.] as §4
WiDr AlphaLISA SureFire pERK1/2 Cellular Assay […]

WiDr cells = experiment: WiDr CellTiter-Glo 3D Cell Proliferation Assay; format: cell-based; details: Homo sapiens, WiDr spheroids, read-out: 3D WiDr pGI50 (converted)
Procedure: The CellTitre Glo® reagent lyses the cells and contains luciferin and a luciferase (Ultra-Glo™ Recombinant Luciferase), which in the presence of ATP and oxygen can produce bioluminescence from luciferin. Therefore, plates were read on an EnVision reader (Perkin Elmer) and luminescence signals were recorded. Cell proliferation was determined on 4 days after dosing relative to the pre-treatment read. All data were analyzed using the Dotmatics or GraphPad Prism software packages. Inhibition of proliferation was assessed by determination of the GIso value, which was defined as the concentration of compound required to decrease the level of cell proliferation by 50% when compared to DMSO control.
The human WiDr colorectal adenocarcinoma cell line (ATCC CCL-218) endogenously expresses the BRAF^V600E mutation, which leads to enhanced survival and proliferative signaling.

[7] = Plasma Protein Binding Assay (hPPB); format: in vitro ADME; details: human plasma, equilibrium dialysis, 5 μM, 4 hours, 37° C.
Procedure: as §5, §6, §7

FeSSIF Solubility Assay = format: physicochemical; details: fed state simulated intestinal fluid (FeSSIF), thermodynamic from solid, pH 5 acetate buffer, 37° C., read-out: FESSIF sol
Procedure: 1 mL of fed state simulated intestinal fluid (FeSSIF), prepared using FaSSIF/FeSSIF/FaSSGF powder (Biorelevant.com) and pH 5 acetate buffer, was added to 1.0 mg of compound and then incubated for 24 h (Bioshake iQ, 650 rpm, 37° C.). Following filtration under positive pressure, the concentration of compound in solution was assessed by LC-UV in comparison to the response for a calibration standard of known concentration (250 μM). FeSSIF solubility results are described in Table 34D.

[8] = tested on: RAF dimers in HCT-116 cells (Encorafenib-induced pERK signalling); experiment: HCT-116 AlphaLISA SureFire pERK1/2 Cellular Assay (Dimer); format: cell-based; details: Homo sapiens
Procedure: as §4
HCT-116 AlphaLISA SureFire pERK1/2 Cellular Assay (Dimer) […]

[9] = Hepatocyte Stability Assay (MLH); format: in vitro ADME; details: mouse hepatocytes, 0.5×10^6 cells/mL, 1 μM compound, 37° C.
Procedure: as §8, §9, §10

[10] = tested on: BRAF monomers in A375 cells (BRAF V600E, pERK); experiment: A375 AlphaLISA SureFire pERK1/2 Cellular Assay (Monomer); format: cell-based; details: Homo sapiens
Procedure: [Worded in the source for another cell line; used here, by the source, with some conditions changed.] as §4
A375 AlphaLISA SureFire pERK1/2 Cellular Assay (Monomer) […]

[11] = HCT-116, 2 h, read-out: PERK HCT116 (2 hr) Abs plC50
[12] = HCT-116, 24 h, read-out: pERK HCT116 (24 hr) Abs plC50
[13] = WiDr, 2 h, read-out: PERK WiDr (2 hr) Abs plC50
[14] = HCT-116, 1 h, read-out: PERK HCT116 dimer (1 hr) plC50
[15] = A-375, 1 h, read-out: PERK A375 mono (1 hr) plC50

Row | Structure (SMILES) | microsomal CLint at 1 µM [1] | IC50 [2, 11] | IC50 [2, 12] | GI50 (HCT-116 cells) | mPPB (% free) [3] | hepatocyte CLint at 1 µM [4] | microsomal CLint at 1 µM [5] | IC50 [6, 13] | GI50 (WiDr cells) | hPPB (% free) [7] | solubility thermodynamic at 24 h (FeSSIF Solubility Assay) | IC50 [8, 14] | hepatocyte CLint at 1 µM [9] | IC50 [10, 15] | IC50 ([2]; HCT-116, HCT116 cells, 2 hr, absolute pIC50, read-out: PERK HCT116 (2 hr) Abs plC50 (converted)) | IC50 ([2]; HCT-116, HCT116 cells, 24 hr, absolute pIC50, read-out: pERK HCT116 (24 hr) Abs plC50 (converted)) | IC50 ([6]; WiDr cells, 2 hr, absolute pIC50, read-out: PERK WiDr (2 hr) Abs plC50 (converted)) | IC50 ([8]; HCT-116, HCT116 cells, RAF dimer, 1 hr, read-out: PERK HCT116 dimer (1 hr) plC50 (converted)) | IC50 ([10]; A-375, A375 cells, BRAF monomer, 1 hr incubation, read-out: PERK A375 mono (1 hr) plC50 (converted))
1 | O=C1CCc2c(Oc3ccc4c(c3)C[C@H](c3nc(-c5ccc(F)cc5)c[nH]3)CO4)ccnc2N1 (single isomer, unassigned) [Compound A-2] | 11.8 µL/min/mg | 69.2 nM | 115 nM | 263 nM | 0.9 % free | 11.4 µL/min/1e6 cells | 80.1 µL/min/mg | 162 nM | 537 nM | 0.7 % free | 9.4 µg/mL (≈ 20.6 µM) | 35.5 nM | 12.5 µL/min/1e6 cells | 275 nM |  |  |  |  | 
2 | O=C1CCc2c(Oc3ccc4c(c3)CC(c3nc(-c5cccs5)c[nH]3)CO4)ccnc2N1 (racemic) [B-rac] | 60.1 µL/min/mg |  |  |  | 0.7 % free | 11.5 µL/min/1e6 cells | 58.8 µL/min/mg |  |  | 0.7 % free |  |  |  |  | 19.1 nM | 24 nM | 44.7 nM | 28.2 nM | 49 nM
3 | O=C1CCc2c(Oc3ccc4c(c3)C[C@@H](c3nc(-c5ccc(F)cc5)c[nH]3)CO4)ccnc2N1 (single isomer, unassigned) [Compound A-1] | 21.7 µL/min/mg | 49 nM | 95.5 nM | 40.7 nM | 0.8 % free | 26.8 µL/min/1e6 cells | 16 µL/min/mg | 45.7 nM | 52.5 nM | 0.5 % free | 9.9 µg/mL (≈ 21.7 µM) | 40.7 nM | 11 µL/min/1e6 cells | 30.9 nM |  |  |  |  | 
4 | O=C1CCc2c(Oc3ccc4c(c3)CC(c3ncc(-c5ccc(F)cc5)[nH]3)CO4)ccnc2N1 (racemic) [A-rac] | 26.9 µL/min/mg | 74.1 nM | 87.1 nM |  | 1.8 % free | 4.6 µL/min/1e6 cells | 30.6 µL/min/mg | 56.2 nM |  | 0.5 % free |  | 49 nM | 23.4 µL/min/1e6 cells | 55 nM |  |  |  |  | 
